Measurements published in PMC9946977, “Identification of linderalactone as a natural inhibitor of SHP2 to ameliorate CCl4-induced liver fibrosis” (Frontiers in Pharmacology, 2023).

Target: T1, SHP2 PTP domain (Homo sapiens, UniProt Q06124)
T1 construct: Human SHP2 PTP domain (A237–I529) expression constructs; His-tag; made in house; host or cells: E. coli BL21 (DE3)
T1 sequence (Q06124 237-529): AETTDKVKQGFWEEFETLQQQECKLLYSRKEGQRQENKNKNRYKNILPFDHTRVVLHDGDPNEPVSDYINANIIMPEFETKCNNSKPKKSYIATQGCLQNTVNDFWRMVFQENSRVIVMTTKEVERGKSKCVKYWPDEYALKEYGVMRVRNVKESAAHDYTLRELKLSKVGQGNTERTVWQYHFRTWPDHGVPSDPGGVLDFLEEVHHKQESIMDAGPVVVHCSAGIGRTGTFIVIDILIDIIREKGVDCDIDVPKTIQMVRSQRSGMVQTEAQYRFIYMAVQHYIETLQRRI
Experiment: SHP2 inhibition assay (DiFMUP) with SHP2-PTP; HTS and dose-response
Assay type: biochemical
Settings: 0.5 nM SHP2-PTP, DiFMUP substrate, 30 min co-incubation at 20°C; read-out: IC50 against the SHP2 PTP domain
Method: Human SHP2 PTP domain (A237–I529) expression constructs were engineered by cloning PTPN11 (NP_002825.3) into the pET30 plasmid with a His-tag to support further protein purification. The K366A/Q510A double mutation was introduced into the wild-type template using a site-directed mutagenesis kit (E0554S; New England Biolabs). The expression constructs were sequenced and transformed into BL21 (DE3)-competent cells. E. coli cells were grown at 37°C in an LB culture medium in the presence of […] kanamycin until the OD600 reached 1.0. The medium was then cooled to 18°C and 1 mM isopropyl ß-D-1-thiogalactopyranoside (IPTG) was added to induce protein expression overnight.
A surrogate phosphatase substrate, 6,8-difluoro-4-methylumbelliferyl phosphate (DiFMUP, Thermo Fisher, #D22065), was used to monitor the catalytic activity of SHP2 in a prompt fluorescence assay format. Specifically, the DiFMUP phosphatase assay was performed at 20°C in a 384-well Griener CELLSTAR black polystyrene plate in the buffer condition of 60 mM HEPES (pH7.5), 75 mM NaCl, 75 mM KCl, 1 mM EDTA, 0.05% Tween-20, 5 mM dithiothreitol (DTT). The final reaction volume was 25 μL. NP compound libraries were obtained from TargetMol at a stock concentration of 10 mM, dissolved in DMSO. The purity of the active compound LIN used in this study is 96.27% as tested by HPLC analysis. The HPLC traces is shown in Supporting Information. We co-incubated 0.5 nM of SHP2-PTP enzyme with tested NPs for 30 min at 20°C, followed by the addition of DiFMUP into the reaction. After 30 min, 5 μL of bpV(phen) solution was added to quench the dephosphorylation reaction. The signals were read on a plate reader (SpectraMax iD5, Molecular Devices). The excitation and emission wavelengths were 340 and 450 nm, respectively. The inhibitor dose-response curves were evaluated using a normalised IC50 regression curve fitting with control-based normalisation. For the full-length SHP2 inhibition assay, 0.5 μM of a bisphosphorylated pIRS-1 peptide (ChinaPeptides Ltd. Shanghai) was added for partial SHP2 activation. […]

## C=C1C2CC2[C@@]2(C)Cc3occ(C)c3C(O)C12 (stereo partly shown) [Lindenenol, lindenenol]
  IC50: 12.6 ± 4.2 µM
